# Assay results from US12384753B2, “17-beta-hydroxysteroid dehydrogenase type 13 inhibitors and methods of use thereof” (Enanta Pharmaceuticals, Inc., priority 2021, dated 2025).
# Biological target: Recombinant human HSD17B13 (Homo sapiens (Human), UniProt Q7Z5P4)
# Experiment: HSD17B13 rapid-fire mass spectrometry assay (RF/MS assay)
# Type: biochemical
# Details: inhibition of HSD17B13; LTB4 10 μM, NAD+ 0.5 mM, RT 3 h; IC50 ranges A-E
# In short: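 Sf9-expressed human HSD17B13 (80 nM) with 10 μM LTB4 and 0.5 mM NAD+, incubated with compound (0–100 μM) for 3 h at RT in Tris pH 7.5/BSA/Tween-20. After formic acid quench, LTB4 conversion to 12-oxo-LTB4 measured by RapidFire MS/MS. IC50 from normalised residual activity, duplicates.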
# Chain of Recombinant human HSD17B13 (Q7Z5P4 20-300): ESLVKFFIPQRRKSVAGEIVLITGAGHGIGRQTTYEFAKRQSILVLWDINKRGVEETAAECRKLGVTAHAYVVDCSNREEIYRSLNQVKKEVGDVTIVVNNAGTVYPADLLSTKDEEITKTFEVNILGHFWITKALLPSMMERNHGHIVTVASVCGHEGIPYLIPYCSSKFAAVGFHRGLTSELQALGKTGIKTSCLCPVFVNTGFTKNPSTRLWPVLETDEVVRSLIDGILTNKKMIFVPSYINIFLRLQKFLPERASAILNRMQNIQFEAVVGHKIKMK
row,SMILES,IC50
1,Cn1nnnc1-c1ccc(NS(=O)(=O)c2cnc(-c3ccc(F)cc3)s2)cc1 [Example 35],1 to 100 µM
2,COc1cc(C(=O)O)ccc1NS(=O)(=O)c1cnc(-c2ccc(C3CCCCC3)cc2)s1 [Example 385],< 0.1 µM
3,COc1cc(OC(F)F)ccc1NS(=O)(=O)c1cnc(-c2ccc(F)cc2)s1 [Example 122],1 to 100 µM
4,COc1cc(C(=O)O)ccc1NS(=O)(=O)c1ccc(-c2cnc(-c3ccccc3)s2)c(F)c1 [Example 332],0.1 to 0.5 µM
5,"COc1cc(C(=O)O)ccc1NS(=O)(=O)c1csc(N2CCN(C(=O)OC(C)(C)C)CC2)n1 [Example 305, 4-((2-(4-(tert-butoxycarbonyl)piperazin-1-yl)thiazole)-4-sulfonamido)-3-methoxybenzoic acid]",1 to 100 µM
6,COc1cc(C(=O)O)ccc1NS(=O)(=O)c1csc(-c2ccc(-c3ccc(OC(F)(F)F)cc3)cc2)n1 [Example 280],0.1 to 0.5 µM
7,COc1cc(C(=O)O)ccc1NS(=O)(=O)c1csc(N2CCN(Cc3ccc(OC(F)(F)F)cc3)CC2)n1 [Example 308],0.1 to 0.5 µM
8,COc1cc(C(=O)O)ccc1NS(=O)(=O)c1csc(C#Cc2ccccc2C)n1 [Example 187],< 0.1 µM
9,O=C(O)c1ccc(CNS(=O)(=O)c2cnc(-c3ccc(F)cc3)s2)cc1 [Example 29],1 to 100 µM
10,O=C(O)c1cnc(NS(=O)(=O)c2cnc(-c3ccc(F)cc3)s2)nc1 [Example 83],1 to 100 µM
11,"COc1cc(C(=O)O)ccc1NS(=O)(=O)N1C[C@H]2CN(C(=O)OC(C)(C)C)C[C@H]2C1 [Example 331, 4-(((3aR,6aS)-5-(tert-butoxycarbonyl)octahydropyrrolo[3,4-c]pyrrole)-2-sulfonamido)-3-methoxybenzoic acid]",1 to 100 µM
12,COc1cc(-c2nnn[nH]2)ccc1NS(=O)(=O)c1cnc(-c2ccc(F)cc2)s1 [Example 135],1 to 100 µM
13,COc1ccc(CC2CCCN(c3nc(S(=O)(=O)Nc4ccc(C(=O)O)cc4OC)cs3)C2)cc1 (stereo not shown) [Example 275],1 to 100 µM
14,CCOc1cc(C(=O)O)ccc1NS(=O)(=O)c1cnc(-c2ccc(F)cc2)s1 [Example 1],0.5 to 1 µM
15,COc1cc(C(=O)O)ccc1NS(=O)(=O)c1csc(-c2ccc(C3CCCC(C)(C)C3)cc2)n1 (stereo not shown) [Example 368],0.1 to 0.5 µM
16,"Cc1sc(-c2ccc(F)cc2)nc1S(=O)(=O)Nc1ccc(C(=O)O)cc1 [Example 55, 4-((2-(4-fluorophenyl)-5-methylthiazole)-4-sulfonamido)benzoic acid]",1 to 100 µM
17,COc1cc(C(=O)N(C)O)ccc1NS(=O)(=O)c1cnc(-c2ccc(F)cc2)s1 [Example 71],1 to 100 µM
18,COc1cc(C(=O)O)ccc1NS(=O)(=O)c1csc(-c2ccn(C)n2)n1 [Example 101],1 to 100 µM
19,COc1cc(C(=O)O)ccc1NS(=O)(=O)c1csc(-c2ccccc2)n1 [Example 102],< 0.1 µM
20,COc1cc(C(=O)O)ccc1NS(=O)(=O)c1coc(-c2ccccc2)n1 [Example 375],< 0.1 µM
21,COc1cc(C(=O)O)ccc1NS(=O)(=O)c1csc(N2CCN(C(=O)OC(C)C)CC2)n1 [Example 309],1 to 100 µM
22,COc1cc(C(=O)O)ccc1NS(=O)(=O)c1ccc(-c2ccccc2OC)s1 [Example 193],0.1 to 0.5 µM

# Continued, values first:
row,IC50,SMILES
1,< 0.1 µM,COc1cc(C(=O)O)ccc1NS(=O)(=O)c1coc(-c2ccc([C@H]3CC[C@@H](C(F)(F)F)CC3)cc2)n1 [Example 609]
2,< 0.1 µM,COc1cc(C(=O)O)c(F)cc1NS(=O)(=O)c1csc(-c2ccc(C3=CCC(C)(C)CC3)cc2F)n1 [Example 510]
3,< 0.1 µM,COc1cc(C(=O)O)c(F)cc1NS(=O)(=O)c1csc(-c2ccc([C@H]3CC[C@H](C(C)C)CC3)c(OC)c2F)n1 [Example 803]
4,< 0.1 µM,COc1cc(C(=O)O)ccc1NS(=O)(=O)c1cnc(-c2ccc([C@H]3CC[C@@H](C(F)(F)F)CC3)cc2)s1 [Example 712]
5,0.1 to 0.5 µM,COc1cc(C(=O)O)c(F)cc1NS(=O)(=O)c1csc(-c2ccc(-c3ccc4cnccc4c3)cc2)n1 [Example 654]
6,0.1 to 0.5 µM,COc1cc(C(=O)O)c(F)cc1NS(=O)(=O)c1csc(-c2ccc(-c3ccc(C4CCC(C(C)(C)C)CC4)cc3C(F)(F)F)cc2C(F)(F)F)n1 (stereo not shown) [Example 781]
7,< 0.1 µM,COc1cc(C(=O)O)c(F)cc1NS(=O)(=O)c1csc(-c2ccc(C3CCC(C(F)(F)F)CC3)c(OC(C)C)c2F)n1 (stereo not shown) [Example 812]
8,0.1 to 0.5 µM,COc1cc(C(=O)O)c(F)cc1NS(=O)(=O)c1csc(-c2ccc(C3=CCC(C)(C)CC3)c(C)c2)n1 [Example 527]
9,0.1 to 0.5 µM,COc1cc(C(=O)O)c(F)cc1NS(=O)(=O)c1csc(-c2cc(F)c(C3=CCC(C)(C)CC3)cc2F)n1 [Example 518]
10,0.1 to 0.5 µM,COc1cc(C(=O)O)c(F)cc1NS(=O)(=O)c1csc(-c2ccc(C3=CCC(C)(C)CC3)c(F)c2C)n1 [Example 562]
11,< 0.1 µM,COc1cc(C(=O)O)c(F)cc1NS(=O)(=O)c1csc(-c2ccc(C3=CCC(C(C)C)CC3)cc2)n1 (stereo not shown) [Example 774]
12,0.5 to 1 µM,"COc1cc(C(=O)O)ccc1NS(=O)(=O)c1cccc(-c2ccc(F)cc2)n1 [Example 411, 4-((6-(4-fluorophenyl)pyridine)-2-sulfonamido)-3-methoxybenzoic acid]"
13,0.1 to 0.5 µM,COc1cc(C(=O)O)ccc1NS(=O)(=O)c1csc(-c2ccc([C@H]3CC[C@@H](C(F)(F)F)CC3)cc2)n1 [Example 608]
14,0.1 to 0.5 µM,COc1cc(C(=O)O)ccc1NS(=O)(=O)c1cccc(-c2ccc(C3=CCC(C(F)(F)F)CC3)cc2)c1F (stereo not shown) [Example 471]
15,< 0.1 µM,COc1cc(C(=O)O)c(F)cc1NS(=O)(=O)c1csc(-c2ccc(C3CC4C(C3)C4(C)C)cc2)n1 (stereo not shown) [Example 535]
16,0.1 to 0.5 µM,"CC[C@H]1CC[C@H](c2ccc(-c3nc4cc(S(=O)(=O)Nc5cc(F)c(C(=O)O)cc5OC)ccc4o3)cc2)CC1 [Example 670, 4-((2-(4-((1r,4r)-4-ethylcyclohexyl)phenyl)benzo[d]oxazole)-5-sulfonamido)-2-fluoro-5-methoxybenzoic acid]"
17,1 to 100 µM,COc1cc(C(=O)O)c(NC(C)=O)cc1NS(=O)(=O)c1csc(-c2ccc(C3CCC(C)(C)CC3)cc2C(F)(F)F)n1 [Example 695]
18,0.1 to 0.5 µM,COc1cc(C(=O)O)ccc1NS(=O)(=O)c1csc(-c2ccc(C#CC3CCCCC3)cc2)n1 [Example 485]
19,< 0.1 µM,COc1cc(C(=O)O)ccc1NS(=O)(=O)c1csc(C#Cc2ccc(OC)c(OC(F)(F)F)c2)n1 [Example 395]
20,0.1 to 0.5 µM,"COc1cc(C(=O)O)ccc1NS(=O)(=O)c1cccc(-c2ccc([C@H]3CC[C@H](C(C)(C)C)CC3)cc2)c1F [Example 478, 4-((4′-((1r,4r)-4-(tert-butyl)cyclohexyl)-2-fluoro-[1,1′-biphenyl])-3-sulfonamido)-3-methoxybenzoic acid]"
21,< 0.1 µM,COc1cc(C(=O)O)c(F)cc1NS(=O)(=O)c1csc(-c2ccc(NC3CCC(C)(C)CC3)cc2)n1 [Example 631]
22,0.1 to 0.5 µM,COc1cc(C(=O)O)c(F)cc1N(C)S(=O)(=O)c1csc(-c2ccc(C3CCC(C)(C)CC3)cc2C(F)(F)F)n1 [Example 683]
23,< 0.1 µM,COc1cc(C(=O)O)c(F)cc1NS(=O)(=O)c1csc(-c2ccc(C3=CCC(C)(C)CC3)c(C(F)(F)F)c2)n1 [Example 515]
24,1 to 100 µM,CCC[C@H]1CC[C@H](C2CC=C(c3ccc(-c4ncc(S(=O)(=O)Nc5ccc(C(=O)O)cc5OC)s4)cc3)CC2)CC1 (stereo partly shown) [Example 709]
